Data published in publication PMC4826283 (Journal of nuclear medicine : official publication, Society …, 2014).

Test system: kappa opioid receptor (KOR)
Experiment: in vivo PET receptor occupancy
Assay type: cell-based, Macaca mulatta
Details: rhesus monkey, brain

SMILES: Cc1cc(C)cc([C@@H]2CCCN2Cc2ccc(Oc3ccc(C(N)=O)cc3F)cc2)c1 [LY2456302]
- % occupancy at 0.3 mg/kg: 93 % occupancy at 0.3 mg/kg
